This experiment has as its target T1, CDK2/Cyclin E1 (Homo sapiens, UniProt P24941).
T1 construct: utilize full-length human CDK2 co-expressed as N-terminal GST-tagged protein; GST (N); purchased Carna 04-165; host or cells: baculovirus expression system
The experiment in a line: CDK2/Cyclin E1 HTRF enzyme activity assay (Example A). The experiment is classed as biochemical. The following applies: 1 mM ATP. The method, then: CDK2/Cyclin E1 enzyme activity assays utilize full-length human CDK2 co-expressed as N-terminal GST-tagged protein with FLAG-Cyclin E1 in a baculovirus expression system (Carna Product Number 04-165). Assays are conducted in white 384-well polystyrene plates in a final reaction volume of 8 μL. CDK2/Cyclin E1 (0.25 nM) is incubated with compounds (40 nL serially diluted in DMSO) in the presence of ATP (50 μM or 1 mM) and 50 nM ULight™-labeled eIF4E-binding protein 1 (THR37/46) peptide (PerkinElmer) in assay buffer (containing 50 mM HEPES pH 7.5, 1 mM EGTA, 10 mM MgC2, 2 mM DTT, 0.05 mg/mL BSA, and 0.01% Tween 20) for 60 minutes at room temperature. The reactions are stopped by the addition of EDTA and Europium-labeled anti-phospho-4E-BP1 antibody (PerkinElmer), for a final concentration of 15 mM and 1.5 nM, respectively. HTRF signals are read after 1 hour at room temperature on a PHERAstar FS plate reader (BMG Labtech). Data is analyzed with IDBS XLFit and GraphPad Prism 5.0 software using a three or four parameter dose response curve to determine IC50 for each compound.
(In general: In TR-FRET formats the signal depends on donor and acceptor labels being close together.)
With `CC1CCCC1N1C(=O)C2(CC2)c2cnc(NC3CCN(S(C)(=O)=O)CC3)nc21` (mixture of isomers) [Example B8, 7′-(2-methylcyclopentyl)-2′-((1-(methylsulfonyl)piperidin-4-yl)amino)spiro[cyclopropane-1,5′-pyrrolo[2,3-d]pyrimidin]-6′(7′H)-one], the 50% inhibitory concentration (IC50) (as a rule, the concentration that gives 50% inhibition) was at most 0.05 µM. On to `CCC(C(F)F)N1C(=O)C(C)(C)Cc2cnc(NC3CCN(S(C)(=O)=O)CC3)nc21` (racemic) [Example A4, 8-(1,1-difluorobutane-2-yl)-6,6-dimethyl-2-((1-(methylsulfonyl)piperidin-4-yl)amino)-5,8-dihydropyrido[2,3-d]pyrimidin-7(6H)-one], for which the 50% inhibitory concentration (IC50) lay within 0.05 to 0.1 µM. Take `CC1(C)Cc2cnc(NC3CCN(S(C)(=O)=O)CC3)nc2N(C2CCOC2)C1=O` (racemic) [Example A6, 6,6-dimethyl-2-((1-(methylsulfonyl)piperidin-4-yl)amino)-8-(tetrahydrofuran-3-yl)-5,8-dihydropyrido[2,3-d]pyrimidin-7(6H)-one]: the IC50 was in the range of 0.1 to 0.5 µM.

`CCC(C(F)F)N1C(=O)C2(CC2)c2cnc(NC3CCN(S(C)(=O)=O)CC3)nc21` (racemic) [Example B10, 7′-(1,1-difluorobutane-2-yl)-2′-((1-(methylsulfonyl)piperidin-4-yl)amino)spiro[cyclopropane-1,5′-pyrrolo[2,3-d]pyrimidin]-6′(7′H)-one]: the IC50 was at most 0.05 µM. In the case of `C[C@@]1(O)CCC[C@H]1N1C(=O)C2(CC2)c2cnc(NC3CCN(S(=O)(=O)c4ncc[nH]4)CC3)nc21` (relative stereo) [Example B17, 2′-((1-((1H-imidazol-2-yl)sulfonyl)piperidin-4-yl)amino)-7′-((trans)-2-hydroxy-2-methylcyclopentyl)spiro[cyclopropane-1,5′-pyrrolo[2,3-d]pyrimidin]-6′(7′H)-one], the 50% inhibitory concentration (IC50) is at most 0.05 µM. `CC1(C)Cc2cnc(Nc3ccc(S(N)(=O)=O)cc3)nc2N(C2CCCC2)C1=O` [Example A1, 4-((8-cyclopentyl-6,6-dimethyl-7-oxo-5,6,7,8-tetrahydropyrido[2,3-d]pyrimidin-2-yl)amino)benzenesulfonamide] displayed an IC50 of at most 0.05 µM. To `CC1(C)Cc2cnc(NC3CCN(S(C)(=O)=O)CC3)nc2N(C2CCCC2)C1=O` [Example A2, 8-cyclopentyl-6,6-dimethyl-2-((1-(methylsulfonyl)piperidin-4-yl)amino)-5,8-dihydropyrido[2,3-d]pyrimidin-7(6H)-one] belongs at most 0.05 µM; to `CC1(C)Cc2cnc(NC3CCN(S(C)(=O)=O)CC3)nc2N(c2ccccc2)C1=O` [Example A3, 6,6-dimethyl-2-((1-(methylsulfonyl)piperidin-4-yl)amino)-8-phenyl-5,8-dihydropyrido[2,3-d]pyrimidin-7(6H)-one], 0.1 to 0.5 µM; to `Cn1nccc1CN1C(=O)C(C)(C)Cc2cnc(NC3CCN(S(C)(=O)=O)CC3)nc21` [Example A5, 6,6-dimethyl-8-((1-methyl-1H-pyrazol-5-yl)methyl)-2-((1-(methylsulfonyl)piperidin-4-yl)amino)-5,8-dihydropyrido[2,3-d]pyrimidin-7(6H)-one], 0.1 to 0.5 µM. Compound `CC1CC(Nc2ncc3c(n2)N(C2CCCC2)C(=O)C32CC2)CCN1S(C)(=O)=O` (stereo not shown) [Example B1, 7′-cyclopentyl-2′-((2-methyl-1-(methylsulfonyl)piperidin-4-yl)amino)spiro[cyclopropane-1,5′-pyrrolo[2,3-d]pyrimidin]-6′(7′H)-one] had a half-maximal inhibitory concentration (IC50) of 0.1 to 0.5 µM. `CS(=O)(=O)N1CCC(Nc2ncc3c(n2)N(C2CCCC2)C(=O)C32CC2)CC1` [Example B2, 7′-cyclopentyl-2′-((1-(methylsulfonyl)piperidin-4-yl)amino)spiro[cyclopropane-1,5′-pyrrolo[2,3-d]pyrimidin]-6′(7′H)-one] gave a 50% inhibitory concentration (IC50) of 0.1 to 0.5 µM.

On to `O=C1N(C2CCCC2)c2nc(NC3CCN(S(=O)(=O)C4CC4)CC3)ncc2C12CC2` [Example B3, 7′-cyclopentyl-2′-((1-(cyclopropylsulfonyl)piperidin-4-yl)amino)spiro[cyclopropane-1,5′-pyrrolo[2,3-d]pyrimidin]-6′(7′H)-one], for which the 50% inhibitory concentration (IC50) is at most 0.05 µM. The compound `O=C1N(C2CCCC2)c2nc(NC3CCN(S(=O)(=O)C4CCOCC4)CC3)ncc2C12CC2` [Example B4, 7′-cyclopentyl-2′-((1-((tetrahydro-2H-pyran-4-yl)sulfonyl)piperidin-4-yl)amino)spiro[cyclopropane-1,5′-pyrrolo[2,3-d]pyrimidin]-6′(7′H)-one] yielded an IC50 of 0.1 to 0.5 µM.

For the compound `O=C1N(C2CCCC2)c2nc(NC3CCN(S(=O)(=O)c4cccnc4)CC3)ncc2C12CC2` [Example B5, 7′-cyclopentyl-2′-((1-(pyridin-3-ylsulfonyl)piperidin-4-yl)amino)spiro[cyclopropane-1,5′-pyrrolo[2,3-d]pyrimidin]-6′(7′H)-one], the IC50 is at most 0.05 µM. The result for `O=C1N(C2CCCC2)c2nc(NC3CCN(S(=O)(=O)c4ccc(Cl)cc4)CC3)ncc2C12CC2` [Example B6, 2′-((1-((4-chlorophenyl)sulfonyl)piperidin-4-yl)amino)-7′-cyclopentylspiro[cyclopropane-1,5′-pyrrolo[2,3-d]pyrimidin]-6′(7′H)-one] reads 0.05 to 0.1 µM; that for `Cn1cc(S(=O)(=O)N2CCC(Nc3ncc4c(n3)N(C3CCCC3)C(=O)C43CC3)CC2)cn1` [Example B7, 7′-cyclopentyl-2′-((1-((1-methyl-1H-pyrazol-4-yl)sulfonyl)piperidin-4-yl)amino)spiro[cyclopropane-1,5′-pyrrolo[2,3-d]pyrimidin]-6′(7′H)-one], at most 0.05 µM.

Take `Cc1ccccc1N1C(=O)C2(CC2)c2cnc(NC3CCN(S(C)(=O)=O)CC3)nc21` [Example B9, 2′-((1-(methylsulfonyl)piperidin-4-yl)amino)-7′-(o-tolyl)spiro[cyclopropane-1,5′-pyrrolo[2,3-d]pyrimidin]-6′(7′H)-one]: the IC50 lay in the range of 0.1 to 0.5 µM. Consider `Cc1c(N2C(=O)C3(CC3)c3cnc(NC4CCN(S(C)(=O)=O)CC4)nc32)cnn1C` [Example B11, 7′-(1,5-dimethyl-1H-pyrazol-4-yl)-2′-((1-(methylsulfonyl)piperidin-4-yl)amino)spiro[cyclopropane-1,5′-pyrrolo[2,3-d]pyrimidin]-6′(7H)-one], for which the IC50 was 0.05 to 0.1 µM. For `Cn1cc(S(=O)(=O)N2CCC(Nc3ncc4c(n3)N([C@@H]3CCC[C@@H](O)C3)C(=O)C43CC3)CC2)cn1` [Example B12, 7′-((1R,3R)-3-hydroxycyclohexyl)-2′-((1-((1-methyl-1H-pyrazol-4-yl)sulfonyl)piperidin-4-yl)amino)spiro[cyclopropane-1,5′-pyrrolo[2,3-d]pyrimidin]-6′(7′H)-one], the IC50 is at most 0.05 µM.

`O=C1N([C@@H]2CCC[C@@H](O)C2)c2nc(NC3CCN(S(=O)(=O)c4cccc(N5CCC5)n4)CC3)ncc2C12CC2` [Example B13, 2′-((1-((6-(azetidin-1-yl)pyridin-2-yl)sulfonyl)piperidin-4-yl)amino)-7′-((1R,3R)-3-hydroxycyclohexyl)spiro[cyclopropane-1,5′-pyrrolo[2,3-d]pyrimidin]-6′(7′H)-one] gave an IC50 of at most 0.05 µM. In the case of `C[C@@H](C1CC1)N1C(=O)C2(CC2)c2cnc(NC3CCN(S(=O)(=O)c4ncc[nH]4)CC3)nc21` [Example B14, (S)-2′-((1-((1H-imidazol-2-yl)sulfonyl)piperidin-4-yl)amino)-7′-(1-cyclopropylethyl)spiro[cyclopropane-1,5′-pyrrolo[2,3-d]pyrimidin]-6′(7′H)-one], the IC50 is at most 0.05 µM. Regarding `C[C@@H](C1CC1)N1C(=O)C2(CC2)c2cnc(NC3CCN(S(=O)(=O)c4ccc(=O)[nH]c4)CC3)nc21` [Example B15, (S)-7′-(1-cyclopropylethyl)-2′-((1-((6-oxo-1,6-dihydropyridin-3-yl)sulfonyl)piperidin-4-yl)amino)spiro[cyclopropane-1,5′-pyrrolo[2,3-d]pyrimidin]-6′(7′H)-one], the IC50 was at most 0.05 µM. In turn, `CCN1CC(n2cc(S(=O)(=O)N3CCC(Nc4ncc5c(n4)N([C@@H](C)C4CC4)C(=O)C54CC4)CC3)cn2)C1` [Example B16, (S)-7′-(1-cyclopropylethyl)-2′-((1-((1-(1-ethylazetidin-3-yl)-1H-pyrazol-4-yl)sulfonyl)piperidin-4-yl)amino)spiro[cyclopropane-1,5′-pyrrolo[2,3-d]pyrimidin]-6′(7′H)-one] had an IC50 of at most 0.05 µM. Turning to `O=C1N(c2cc3c(cc2Cl)CNCC3)c2nc(NC3CCN(S(=O)(=O)c4ncc[nH]4)CC3)ncc2C12CC2` [Example B18, 2′-((1-((1H-imidazol-2-yl)sulfonyl)piperidin-4-yl)amino)-7′-(7-chloro-1,2,3,4-tetrahydroisoquinolin-6-yl)spiro[cyclopropane-1,5′-pyrrolo[2,3-d]pyrimidin]-6′(7′H)-one], the IC50 is at most 0.05 µM. Consider `CCn1cnc(S(=O)(=O)N2CCC(Nc3ncc4c(n3)N(c3cc(F)ccc3Cl)C(=O)C43CC3)CC2)c1` [Example B19, 7′-(2-chloro-5-fluorophenyl)-2′-((1-((1-ethyl-1H-imidazol-4-yl)sulfonyl)piperidin-4-yl)amino)spiro[cyclopropane-1,5′-pyrrolo[2,3-d]pyrimidin]-6′(7′H)-one], for which the 50% inhibitory concentration (IC50) is at most 0.05 µM.

Values taken from patent publication US20200316064A1, “CYCLIN-DEPENDENT KINASE 2 BIOMARKERS AND USES THEREOF” (Incyte Corporation, priority 2019, published 2020).
